This test deals with T1, mTOR (Homo sapiens, UniProt P42345).
T1 construct: GST-tagged recombinant fragment mTOR, some regulatory domains deleted, intact kinase domain; also immunoprecipitated full-length HA-mTOR
Nature of the test: in vitro kinase assay (GST-S6K or 4E-BP1 phosphorylation), with ATP competition and a resistant mutant. The class given is biochemical.

T1 sequence (P42345 1360-2549): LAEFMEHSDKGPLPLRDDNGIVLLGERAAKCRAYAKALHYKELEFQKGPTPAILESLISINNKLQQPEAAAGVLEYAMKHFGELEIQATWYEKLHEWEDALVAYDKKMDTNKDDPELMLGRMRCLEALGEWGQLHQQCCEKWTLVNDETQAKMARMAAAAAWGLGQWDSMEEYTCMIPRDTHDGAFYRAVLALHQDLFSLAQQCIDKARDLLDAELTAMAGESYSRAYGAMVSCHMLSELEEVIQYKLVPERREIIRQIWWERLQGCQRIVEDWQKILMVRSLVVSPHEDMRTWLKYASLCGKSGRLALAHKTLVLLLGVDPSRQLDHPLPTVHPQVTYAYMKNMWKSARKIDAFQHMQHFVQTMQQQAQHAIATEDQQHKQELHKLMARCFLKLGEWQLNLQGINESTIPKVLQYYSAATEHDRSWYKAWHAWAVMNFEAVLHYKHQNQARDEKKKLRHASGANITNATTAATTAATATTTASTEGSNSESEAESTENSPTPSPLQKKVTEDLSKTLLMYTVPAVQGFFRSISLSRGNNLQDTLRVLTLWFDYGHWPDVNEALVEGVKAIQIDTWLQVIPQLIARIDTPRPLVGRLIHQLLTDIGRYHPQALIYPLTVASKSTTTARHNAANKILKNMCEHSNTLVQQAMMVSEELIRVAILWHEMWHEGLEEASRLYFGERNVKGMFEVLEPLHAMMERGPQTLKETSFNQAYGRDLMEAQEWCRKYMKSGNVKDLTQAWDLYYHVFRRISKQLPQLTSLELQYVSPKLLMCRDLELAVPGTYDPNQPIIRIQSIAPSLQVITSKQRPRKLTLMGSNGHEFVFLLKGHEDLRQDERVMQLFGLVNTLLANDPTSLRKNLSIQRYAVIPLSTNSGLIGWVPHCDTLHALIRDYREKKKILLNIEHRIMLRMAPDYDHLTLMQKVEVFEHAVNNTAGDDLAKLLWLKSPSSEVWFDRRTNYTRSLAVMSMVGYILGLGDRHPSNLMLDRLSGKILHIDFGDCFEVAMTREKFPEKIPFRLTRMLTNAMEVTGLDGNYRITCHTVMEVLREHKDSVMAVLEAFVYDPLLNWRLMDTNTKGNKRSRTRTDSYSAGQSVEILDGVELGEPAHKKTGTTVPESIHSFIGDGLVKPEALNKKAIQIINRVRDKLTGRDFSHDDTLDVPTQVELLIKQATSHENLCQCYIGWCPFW

For `Oc1ccc(/C=C/c2cc(O)cc(O)c2)cc1` [resveratrol, 3,40,5-trihydroxy-trans-stilbene], the IC50 is around 10 µM.

In general, IC50 refers to the concentration that gives 50% inhibition.

Source of the values: paper PMC4763238, “Resveratrol induces autophagy by directly inhibiting mTOR through ATP competition” (Scientific Reports, 2016).
